Consider five compounds from PMC11661808 (ADMET & DMPK, 2024).

For data set [1] the following is noted: in vivo.
Method: (§1) Nine rats were randomly divided into three groups and their body weights were recorded from 254 to 281 g. […] Rats were sacrificed at 5, 30 and 120 min post-dose (n = 3 per time point). Cornea, retina, and vitreous humour samples were collected, washed in saline three times and weighed, while blood samples were taken from the heart puncture. Tissue samples were initially stored on dry ice, while the blood samples were centrifuged at 4 °C and 6000 rpm for 10 min. Subsequently, the plasma samples were prepared and also stored on dry ice. Ultimately, all samples were cryopreserved in a -80 °C freezer after harvest.
(§2) Rat plasma (400 RL, 44.4 LL/rat at each time point) was pooled from 3-time points utilizing the equal volume method and subsequently precipitated with acetonitrile containing 0.1 % formic acid at a ratio of 1:3. Homogenate samples of rat cornea, retina, and vitreous humour (600 L, 66.7 LL /rat) were pooled from three time points individually utilizing the equal volume and transferred into a 15 mL centrifuge tube and subjected to precipitation with acetonitrile containing 0.1 % formic acid at the same ratio of 1:3. Following centrifugation, the supernatant was evaporated under a stream of nitrogen gas. The residues from plasma and rat retina were reconstituted with 150 L of 10 % acetonitrile in H2O (with 0.1 % formic acid), while the residues from the rat cornea and vitreous humour were reconstituted with 100 L of 10 % acetonitrile in H2O (0.1 % formic acid). Four types of blank samples were processed in a similar manner. Ultimately, 10,L samples of each tissue were injected for analysis using the Ultimate 3000-Q-Exactive Plus system.
(§3) Mobile phase A consisted of water containing 0.1 % formic acid, while mobile phase B consisted of acetonitrile with 0.1 % formic acid. […] Mass scanning was performed on the Q-Exactive Plus using positive-ion full MS/dd-MS2 mode with a range from m/z 80 to 900. The collision energy was set at 30, 40 and 50 eV. The mass resolution was set as 70,000 for full MS, and 17,500 for dd-MS2 scans, and the mass error limit was set as 5.0 ppm.
Data set [2] can be described thus: Metabolite identification and profiling in pooled rat plasma, cornea, retina and vitreous humour after eye drop administration. The note with it: for Relative peak area abundance, COR: pooled rat cornea homogenate (5, 30, 120 min); for Relative peak area abundance, PLA: pooled rat plasma (5, 30, 120 min); for Relative peak area abundance, VH: pooled rat vitreous humour homogenate (5, 30, 120 min).
Method: as §1, §2, §3

Data set [3] is described as follows: Ketoconazole concentration in plasma and ocular tissues after single topical ocular instillation. The note with it: for concentration at 5 min / concentration at 120 min / concentration at 30 min: Sprague Dawley, rat, topical; for concentration at 120 min: 120 min post-dose; for concentration at 30 min: 30 min post-dose. Format: in vivo, Sprague Dawley rats. The procedure:
The mixture was stirred at 40 °C. Subsequently, 0.040 mL of 1 M hydrochloric acid was added, and the mixture was stirred at 40 °C until it was completely dissolved. 0.250 mL of hydroxypropyl beta-cyclodextrin (HPβCD) was added and vortexed and stirred at 40 °C until clear. 0.005 mL of 1 M sodium hydroxide was added to adjust the pH to 6.5-7.0 while stirring magnetically at 40 °C, and 0.038 mL of water was added, vortexed, and stirred at 40 °C until clear.
Each tissue was then homogenized using an Ultrasonic Cell Crusher for 5 seconds. The cornea and retina homogenates were sonicated for 10 min, while the vitreous was sonicated for 30 min at 0 °C prior to bioanalysis. The ocular tissue homogenates were stored in a -80 °C freezer before bioanalysis.
All samples underwent protein precipitation for pharmacokinetic analysis. Plasma and three types of tissue homogenate samples (50 μL each) were treated with 5 μL of methanol and then quenched with a 200 μL methanol and acetonitrile mixture (1:1, v/v) containing 50 ng/mL terfenadine as an internal standard (ISTD). After vortexing for 1 min and centrifuging at 4000 rpm for 15 min, the supernatant was transferred and diluted 10-fold with a methanol/water solution (1:1, v/v, containing 0.1 % formic acid) for LC-MS/MS analysis. The working solution was prepared with a concentration range of 50.0 to 100,000 ng/mL.
The quantitative sample analysis was performed on a Shimadzu LC-20AD (Shimadzu, Japan) - API 4000 mass spectrometer (SCIEX, Canada).

For data set [4] the following is noted: humans, cited from earlier work.
Setting [5] is: selected ion chromatographic peak areas.
Setting [6] is: plasma, 300 μg per rat, rat plasma, read-out: mean concentration in plasma.

SMILES strings stand for the structures. Read-outs that look alike come from different tables or passages of the source.

For `Clc1ccc([C@@]2(Cn3ccnc3)OC[C@H](COc3ccc(N4CCNCC4)cc3)O2)c(Cl)c1` [M4 (DAK), N-deacetyl ketoconazole], the “detection in rat plasma” value is “No N-deacetyl ketoconazole (M4) was found” in data set [1] (Sprague Dawley) and “not detected” in data set [1]. Moreover, in data set [1] (Sprague Dawley, rat), the “Relative peak area abundance, COR” value is 0.2%.
As for `CC(=O)N1CCN(c2ccc(OC[C@H]3CO[C@](CN)(c4ccc(Cl)cc4Cl)O3)cc2)CC1` [Metabolite M6], in data set [2] (setting [5]), the “Relative peak area abundance, COR” value worked out at 0.1% and the “Relative peak area abundance, PLA” value is recorded as 0.6%.
Regarding `CC(=O)N1CCN(c2ccc(OC[C@H]3CO[C@](Cn4ccnc4)(c4ccc(Cl)cc4Cl)O3)cc2)CC1O` (some centres unmarked) [Metabolite M1], in data set [2] (setting [5]), the “Relative peak area abundance, COR” value was “D (detected in trace amount (the relative abundance was less than 0.1 %))” and the “Relative peak area abundance, VH” value is “D (detected in trace amount (the relative abundance was less than 0.1 %))”.
With `OC[C@H]1CO[C@](Cn2ccnc2)(c2ccc(Cl)cc2Cl)O1` [Metabolite M2], in data set [2] (setting [5]), the “Relative peak area abundance, COR” value was 1.1%; the “Relative peak area abundance, PLA” value is reported as 0.1%; the “Relative peak area abundance, VH” value turned out to be 0.6%. The “Relative peak area abundance, RET” value in data set [2] (pooled rat retina homogenate (5, 30, 120 min), selected ion chromatographic peak areas) came out at 1.2%. Moreover, the “abundance of dominant metabolite in cornea, retina” value in data set [2] (rat cornea, retina) is listed as 1.1-1.2%.
For `CC(=O)N1CCN(c2ccc(OCC3COC(Cn4ccnc4)(c4ccc(Cl)cc4Cl)O3)cc2)CC1` (centres unmarked) [Ketoconazole], the concentration at 5 min in data set [3] (cornea, 150 μg per eye, rat cornea, left eye, 5 min post-dose, 150 μg per eye, read-out: mean concentration in cornea, left eye) worked out at 416000 ng/g; in data set [3] (cornea, 150 μg per eye, rat cornea, right eye, 5 min post-dose, 150 μg per eye, read-out: mean concentration in cornea, right eye) it was 430000 ng/g; in data set [3] (cornea, 300 μg per rat, mean ketoconazole concentration in cornea, rat cornea, 5 min post-dose, 300 μg/rat topical ocular), 423000 ng/g; in data set [3] (plasma, 300 μg per rat, rat plasma, 5 min post-dose, read-out: mean concentration in plasma), 445 ng/mL; in data set [3] (retina, 150 μg per eye, rat retina, left eye, 5 min post-dose, 150 μg per eye, read-out: mean concentration in retina, left eye), 439 ng/g; in data set [3] (retina, 150 μg per eye, rat retina, right eye, 5 min post-dose, 150 μg per eye, read-out: mean concentration in retina, right eye) it was 552 ng/g. For the same compound, the concentration at 5 min in data set [3] (retina, 300 μg per rat, mean ketoconazole concentration in retina, rat retina, 5 min post-dose, 300 μg/rat topical ocular) turned out to be 4960 ng/g; in data set [3] (vitreous humour, 150 μg per eye, rat vitreous humour, left eye, 5 min post-dose, 150 μg per eye, read-out: mean concentration in vitreous humour, left eye), 1120 ng/g; in data set [3] (vitreous humour, 150 μg per eye, rat vitreous humour, right eye, 5 min post-dose, 150 μg per eye, read-out: mean concentration in vitreous humour, right eye), 1180 ng/g; in data set [3] (vitreous humour, 300 μg per rat, mean ketoconazole concentration in vitreous humour, rat vitreous humour, 5 min post-dose, 300 μg/rat topical ocular) it was 1190 ng/g. The concentration at 120 min in data set [3] (cornea, 300 μg per rat, mean ketoconazole concentration in cornea, rat cornea, mean of left and right eye) turned out to be 8360 ng/g; in data set [3] (plasma, 300 μg per rat, mean ketoconazole concentration in plasma, rat plasma, 300 μg/rat topical ocular), 38.4 ng/mL; in data set [3] (setting [6]), 38.4 ng/mL; in data set [3] (retina, 300 μg per rat, mean ketoconazole concentration in retina, rat retina, mean of left and right eye), 94.4 ng/g; in data set [3] (vitreous humour, 300 μg per rat, mean ketoconazole concentration in vitreous humour, rat vitreous humour, mean of left and right eye), 116 ng/g. The concentration at 30 min turned out to be 113000 ng/g in data set [3] (cornea, 300 μg per rat, rat cornea, mean of left and right eye, read-out: mean concentration in cornea); 303 ng/mL in data set [3] (setting [6]); 1470 ng/g in data set [3] (retina, 300 μg per rat, rat retina, mean of left and right eye, read-out: mean concentration in retina); 713 ng/g in data set [3] (vitreous humour, 300 μg per rat, rat vitreous humour, mean of left and right eye, read-out: mean concentration in vitreous humour). The “mean peak plasma concentration” value in data set [3] (rat plasma, 5 min post-dose, 300 μg/rat topical ocular) is 445 ng/mL. Further, the “biphasic elimination, thereafter” value in data set [4] (after the first 10 h) is reported as 8 h. In addition, the “biphasic elimination, during the first 10 h” value in data set [4] (first 10 h) is 2 h. For the same compound, in data set [4], the “time to maximum plasma concentration” value is 1 to 2 h.
